Assay results: article PMC3692424, “A New Type of Na^+-Driven ATP Synthase Membrane Rotor with a Two-Carboxylate Ion-Coupling Motif” (PLoS Biology, 2013)

What was measured:
[1] = biological target: T1, F. nucleatum F1Fo-ATP synthase (purified; c-ring site of DCCD) (Fusobacterium nucleatum, UniProt Q8RGD7); assay: inhibition of ATP hydrolysis, ATP-regenerating assay; assay type: biochemical; details: covalent (Glu65 of subunit c); 20 min preincubation at 25 °C, 50 mM MOPS, 2 mM MgCl2, pH 7.5; no added Na+
T1 construct: gene atpE; same native holoenzyme as P1; entry split because DCCD modifies Glu65 of subunit c; with ATP synthase subunit alpha; ATP synthase subunit beta; ATP synthase gamma chain; ATP synthase subunit delta; ATP synthase epsilon chain; ATP synthase subunit a; ATP synthase subunit b

[2] = biological target: T2, F. nucleatum c11 ring (isolated c-ring) (Fusobacterium nucleatum, UniProt Q8RGD7); assay: fluorescence increase on labelling; SDS-PAGE under UV light; assay type: binding; details: covalent (Glu65); 100 µM NCD-4, MES pH 5.7, 1.5% n-octyl-β-D-glycoside, no Na+
T2 construct: gene atpE; isolated c11 ring from hybrid ATP synthase (I. tartaricus F1-ab2) expressed in E. coli DK8; detergent-solubilized
T2 sequence (Q8RGD7 whole entry): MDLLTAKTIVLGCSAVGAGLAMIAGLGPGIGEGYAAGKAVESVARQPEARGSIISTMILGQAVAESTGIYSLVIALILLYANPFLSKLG

Compound	inhibition of ATP hydrolysis, ATP-regenerating assay [1]	fluorescence increase on labelling; SDS-PAGE under UV light [2]
C(=NC1CCCCC1)=NC1CCCCC1 [DCCD, N,N′-dicyclohexylcarbodiimide]	The ATPase activity of the enzyme was inhibited by DCCD in a concentration-dependent manner	
CN(C)c1ccc(N=C=NC2CCCCC2)c2ccccc12 [NCD-4, N-cyclohexyl-N′-(4-(dimethylamino)-α-naphthyl)-carbodiimide]		NCD-4 modifies Glu65 in the isolated c-ring
